Activity and Km data for four compounds are collected here from ChEMBL document CHEMBL1811849, “Development of a plate-based scintillation proximity assay for the mycobacterial AftB enzyme involved in cell wall arabinan biosynthesis” (Bioorg Med Chem, 2010).

Molecules are shown by their SMILES. Activity calls are given as the source filed them. The calls are words filed in the database; no cut-off is given here.

The term Km denotes the concentration of substrate that gives half-maximal velocity.

Experiment [1] deals with Mycolicibacterium smegmatis. As to the kind of experiment: Activity of AftB in Mycobacterium smegmatis membrane assessed as formation of biosynthetic products by TLC based assay. The format is cell membranes.
Experiment [2] concerns Mycolicibacterium smegmatis. In words: Activity of AftB in Mycobacterium smegmatis membrane/p60 fraction assessed as incorporation of DP[3H]A to compound to generate biotinylated trisaccharide with beta-(1 to 2) Araf residue by SPA assay.

For the compound `C=CCCCO[C@H]1O[C@H](CO[C@H]2O[C@H](CO[C@H]3O[C@H](CO[C@H]4O[C@H](CO)[C@@H](O)[C@@H]4O)[C@@H](O)[C@@H]3O)[C@@H](O)[C@@H]2O)[C@@H](O)[C@@H]1O`, the result in experiment [1] was Active.
In the case of `C=CCCCO[C@H]1O[C@H](CO[C@H]2O[C@H](CO[C@H]3O[C@H](CO)[C@@H](O)[C@@H]3O)[C@@H](O)[C@@H]2O)[C@@H](O)[C@@H]1O`, the result in experiment [1] was Active.
As for `O=C(CCCC[C@@H]1SC[C@@H]2NC(=O)N[C@@H]21)NCCSCCCCCO[C@H]1O[C@H](CO[C@H]2O[C@H](CO)[C@@H](O)[C@@H]2O)[C@@H](O)[C@@H]1O`, the Km in experiment [2] was determined as 40.9 µM.
As for `C=CCCCO[C@H]1O[C@H](CO[C@H]2O[C@H](CO)[C@@H](O)[C@@H]2O)[C@@H](O)[C@@H]1O`, the outcome in experiment [1] was Active.
